The values below are quoted from earlier work in patent US20220160669A1, “PARENTERAL NUTRITION FORMULATION” (BAXTER INTERNATIONAL INC., priority 2020, published 2022).

The conditions of the data set: human, in vivo; cited from earlier work.

For the compound `CCCC(=O)[O-].[Na+]` [sodium butyrate], the clearance rate is 83 ± 12 mL/kg/min.
